In patent publication US9868742B2, “Substituted imidazo[1,2-b]pyridazines, substituted imidazo[1,5-b] pyridazines, related compounds, and their use in the treatment of medical disorders” (Lysosomal Therapeutics Inc., priority 2016, dated 2018):

Molecular target: T1, glucocerebrosidase (Gcase) (Homo sapiens, UniProt P04062)
T1 sequence (P04062 40-536): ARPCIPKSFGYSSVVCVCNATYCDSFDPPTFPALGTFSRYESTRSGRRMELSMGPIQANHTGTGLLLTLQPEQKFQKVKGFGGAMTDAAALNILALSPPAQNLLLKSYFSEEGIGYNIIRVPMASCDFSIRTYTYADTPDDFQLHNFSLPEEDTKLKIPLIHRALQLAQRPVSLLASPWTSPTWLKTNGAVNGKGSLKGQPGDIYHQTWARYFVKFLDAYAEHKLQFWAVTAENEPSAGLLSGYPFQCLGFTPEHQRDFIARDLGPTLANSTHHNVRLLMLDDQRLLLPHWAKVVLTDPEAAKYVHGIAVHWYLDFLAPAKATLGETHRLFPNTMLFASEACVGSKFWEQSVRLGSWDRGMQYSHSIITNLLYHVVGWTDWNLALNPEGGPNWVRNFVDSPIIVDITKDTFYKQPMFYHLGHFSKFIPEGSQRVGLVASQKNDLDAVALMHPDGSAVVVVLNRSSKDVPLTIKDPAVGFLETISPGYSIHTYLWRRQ
Assay: Glucocerebrosidase (Gcase) activation assay, 4-methylumbelliferyl-beta-D-glucopyranoside substrate with saposin C
Type: biochemical
Settings: 10 nM GCase, 100 nM saposin C, pH 4.7
Procedure: The ability of exemplary compounds to activate glucocerebrosidase (Gcase) was measured.
A 484 μL aliquot of a 1.0 mg/mL solution of phosphatidylserine (PS) (Sigma P7769) in chloroform was evaporated under a stream of nitrogen for 1 hour. The lipid film was dissolved over 4 minutes of vigorous vortexing in 40 mL of 176 mM K2HPO4/50 mM citric acid (pH 4.7) containing 7.5 μL of triton X-100, resulting in a mixed micellar preparation with a composition of 0.32 mM triton and 0.37 mol % PS. 4-Methylumbelliferyl-beta-D-glucopyranoside (ACROS-337025000) was dissolved in the micellar solution to a final concentration of 2 mM for use as the reaction substrate.
Test compounds were diluted to the desired concentrations with dimethylsulfoxide (DMSO) from 10 mM stocks, and 0.41 μL of the DMSO compound mixture was added to 100 μL of micellar solution containing 10 nM GCase and 100 nM saposin C (Enzo ALX-201-262-C050). Pre-incubation was allowed to occur for 30 minutes at room temperature, after which the reaction was initiated by combining 25 μL of substrate solution with 25 μL of compound/GCase/saposin mixture. The reaction proceeded for 15 minutes at room temperature and was stopped by adding 150 μL of 1M glycine, pH 12.5. The endpoint of the reaction was monitored by measuring fluorescence intensity (excitation: 365 nm; emission: 440 nm) on a SpectraMax i3 instrument (Molecular Devices). […]

`CCCCCOC1CCC(NC(=O)c2ncc3c(C)cc(C)nn23)CC1` (centres unmarked) was tested, and the activation at 0.1 µM (0.1 μM test compound, read-out: Percent Gease Activation 0.1 μM Test Compound) was 5 to 20% and the activation at 1 µM (1 μM test compound, read-out: Percent Gease Activation 1 μM Test Compound) was > 20%.
